Laboratory results reported in patent US9802941B2, “Compounds and methods for inhibiting histone demethylases” (Gilead Sciences, Inc., priority 2014, dated 2017).
Like-named read-outs stand apart in the source and are kept apart here.

What was measured:
Type in all cases: biochemical
KDM2B (FBXL10) = target: T1, KDM2B (FBXL10) (Homo sapiens, UniProt Q8NHM5); assay: Histone lysine demethylase AlphaLISA assay, KDM2B
T1 construct: KDM2B; BPS,; 1-650; Bac; purchased BPS Bioscience, US; host or cells: baculovirus system
T1 sequence (Q8NHM5 1-650): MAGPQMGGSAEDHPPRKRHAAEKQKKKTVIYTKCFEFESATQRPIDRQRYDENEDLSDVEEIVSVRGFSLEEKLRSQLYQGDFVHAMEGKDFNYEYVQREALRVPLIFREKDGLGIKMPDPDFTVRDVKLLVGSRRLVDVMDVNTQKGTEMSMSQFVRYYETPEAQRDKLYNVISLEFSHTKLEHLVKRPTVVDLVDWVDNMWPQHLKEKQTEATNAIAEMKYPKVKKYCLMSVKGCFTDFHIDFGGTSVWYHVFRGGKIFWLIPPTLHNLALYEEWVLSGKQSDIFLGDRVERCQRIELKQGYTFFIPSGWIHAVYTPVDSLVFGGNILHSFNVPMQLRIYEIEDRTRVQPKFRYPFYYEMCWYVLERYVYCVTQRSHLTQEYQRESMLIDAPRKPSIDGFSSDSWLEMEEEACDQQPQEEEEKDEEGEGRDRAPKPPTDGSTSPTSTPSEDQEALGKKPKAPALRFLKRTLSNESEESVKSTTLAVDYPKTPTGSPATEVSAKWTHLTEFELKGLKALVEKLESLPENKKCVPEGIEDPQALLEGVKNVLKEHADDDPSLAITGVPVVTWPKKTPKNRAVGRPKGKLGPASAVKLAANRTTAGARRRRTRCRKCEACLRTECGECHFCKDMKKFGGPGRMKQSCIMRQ
In short: (§1)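 In vitro demethylase inhibition measured by AlphaLISA. Enzymes preincubated with compound 10 minutes in 50 mM Hepes (pH 7.4-8.0), 0.003-0.01% Tween-20, 0.1% BSA, 5 μM (NH4)2Fe(SO4)2 before substrate addition at room temperature.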

KDM5B (PLU-1) = target: T2, KDM5B (PLU-1) (Homo sapiens, UniProt Q9UGL1); assay: Histone lysine demethylase AlphaLISA assay, KDM5B
T2 construct: BRIC; 1-809; E. coli; host or cells: E. coli
T2 sequence (Q9UGL1 1-809): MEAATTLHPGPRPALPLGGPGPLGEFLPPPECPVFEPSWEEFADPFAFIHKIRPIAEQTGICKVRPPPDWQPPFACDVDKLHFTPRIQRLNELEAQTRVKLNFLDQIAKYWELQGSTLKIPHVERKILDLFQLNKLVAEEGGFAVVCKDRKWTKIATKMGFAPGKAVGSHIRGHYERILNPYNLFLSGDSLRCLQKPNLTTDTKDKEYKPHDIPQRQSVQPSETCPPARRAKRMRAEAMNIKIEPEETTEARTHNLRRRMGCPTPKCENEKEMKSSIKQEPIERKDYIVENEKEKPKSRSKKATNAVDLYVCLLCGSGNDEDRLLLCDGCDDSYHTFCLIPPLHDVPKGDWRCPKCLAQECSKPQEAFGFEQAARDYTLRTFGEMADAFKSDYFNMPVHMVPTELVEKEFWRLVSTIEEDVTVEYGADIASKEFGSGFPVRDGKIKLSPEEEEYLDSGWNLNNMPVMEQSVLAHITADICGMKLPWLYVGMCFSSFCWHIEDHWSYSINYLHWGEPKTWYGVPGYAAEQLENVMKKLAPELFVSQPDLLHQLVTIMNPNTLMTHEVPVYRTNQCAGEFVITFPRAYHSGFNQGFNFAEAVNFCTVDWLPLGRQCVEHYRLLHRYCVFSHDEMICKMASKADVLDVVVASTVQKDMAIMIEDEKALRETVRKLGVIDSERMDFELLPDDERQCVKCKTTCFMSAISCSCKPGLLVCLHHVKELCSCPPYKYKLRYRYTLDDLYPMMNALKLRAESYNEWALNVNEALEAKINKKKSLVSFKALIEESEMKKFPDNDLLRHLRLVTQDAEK
In short: as §1

PHF8 (KDM7) = target: T3, PHF8 (KDM7) (Homo sapiens, UniProt Q9UPP1); assay: Histone lysine demethylase AlphaLISA assay, PHF8
T3 construct: KDM7 (PHF8); BRIC; 1-1322; Bac
T3 sequence (Q9UPP1 37-440 limits assumed): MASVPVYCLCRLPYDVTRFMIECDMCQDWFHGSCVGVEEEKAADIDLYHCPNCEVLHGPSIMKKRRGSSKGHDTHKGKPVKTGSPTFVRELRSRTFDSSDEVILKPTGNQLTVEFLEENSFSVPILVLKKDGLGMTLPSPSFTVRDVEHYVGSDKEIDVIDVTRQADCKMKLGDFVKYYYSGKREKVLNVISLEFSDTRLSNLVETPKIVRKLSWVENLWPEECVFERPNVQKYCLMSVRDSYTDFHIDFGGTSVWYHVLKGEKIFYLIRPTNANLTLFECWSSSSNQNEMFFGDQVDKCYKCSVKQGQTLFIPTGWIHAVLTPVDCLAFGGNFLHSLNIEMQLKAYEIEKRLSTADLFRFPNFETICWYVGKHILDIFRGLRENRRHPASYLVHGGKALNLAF
In short: as §1

KDM4C (JMJD2C) = target: T4, KDM4C (JMJD2C) (Homo sapiens, UniProt Q9H3R0); assay: Histone lysine demethylase AlphaLISA assay, KDM4C
T4 construct: KDM4C; BRIC, Denmark; 1-349; E. coli; host or cells: E. coli
T4 sequence (Q9H3R0 1-349): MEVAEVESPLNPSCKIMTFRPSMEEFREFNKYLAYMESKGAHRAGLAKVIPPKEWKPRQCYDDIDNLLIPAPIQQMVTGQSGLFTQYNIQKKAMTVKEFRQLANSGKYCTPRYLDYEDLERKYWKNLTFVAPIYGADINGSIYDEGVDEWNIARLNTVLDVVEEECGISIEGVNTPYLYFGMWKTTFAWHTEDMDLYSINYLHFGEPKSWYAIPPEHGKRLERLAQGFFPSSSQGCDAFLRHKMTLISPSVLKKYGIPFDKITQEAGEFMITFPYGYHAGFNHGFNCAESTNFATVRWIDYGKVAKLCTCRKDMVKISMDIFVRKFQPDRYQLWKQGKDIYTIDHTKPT
In short: as §1

KDM6A (UTX) = target: T5, KDM6A (UTX) (Homo sapiens, UniProt O15550); assay: Histone lysine demethylase AlphaLISA assay, KDM6A
T5 construct: KDM6A (UTX); BRIC; 919-1401; E. coli; host or cells: E. coli
T5 sequence (O15550 919-1401): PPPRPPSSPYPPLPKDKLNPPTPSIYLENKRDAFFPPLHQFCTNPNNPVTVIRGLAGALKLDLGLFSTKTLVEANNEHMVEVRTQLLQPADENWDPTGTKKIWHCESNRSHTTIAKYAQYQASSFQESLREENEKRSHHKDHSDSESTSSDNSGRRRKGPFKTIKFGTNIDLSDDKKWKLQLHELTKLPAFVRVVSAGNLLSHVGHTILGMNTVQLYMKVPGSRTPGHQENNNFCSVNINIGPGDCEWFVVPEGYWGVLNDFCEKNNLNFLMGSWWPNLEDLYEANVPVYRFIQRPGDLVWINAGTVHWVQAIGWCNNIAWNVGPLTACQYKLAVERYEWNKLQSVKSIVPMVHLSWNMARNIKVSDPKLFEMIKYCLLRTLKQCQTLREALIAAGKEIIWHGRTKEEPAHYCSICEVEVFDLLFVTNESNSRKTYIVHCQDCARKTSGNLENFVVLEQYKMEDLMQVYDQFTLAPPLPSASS
Protocol: The compounds of the application, or a pharmaceutically acceptable salt, or solvate, or prodrug thereof, are tested in an in vitro AlphaLISA assay. Enzymes are dissolved in enzyme buffer and incubated before they are added to DMSO solutions of compounds of the application, or a pharmaceutically acceptable salt, or solvate, or prodrug thereof, in enzyme buffer. The reaction mixture is then incubated for an additional period of time before substrate solution is added and then the resulting mixture again incubated. Acceptor beads and suspended Epigenetic Buffer from stock are added and the suspension is again incubated before a suspension of streptavidin donor beads in Epigenetic Buffer is added. After an additional period of incubation, the plates are read.
The ability of compounds of the application to inhibit the histone lysine demethylase activity in vitro of different enzymes was determined.
The reaction mixture was incubated for another 10 minutes before 5 μL of substrate solution was added and the resulting mixture was then incubated at room temperature. […] After incubation at room temperature in the dark, the plates were read.
Enzyme Buffer: 50 mM Hepes (pH 7.4-8.0), 0.003-0.01% Tween-20, 0.1% BSA; 5 μM (NH4)2Fe(SO4)2.

[1] = AlphaLISA, in vitro, read-out: HDME Inhibition KDM2B
[2] = AlphaLISA assay, read-out: HDME Inhibition PHF8 (IC50)
[3] = AlphaLISA, in vitro, read-out: HDME Inhibition PHF8
[4] = AlphaLISA assay, read-out: HDME Inhibition KDM4C (IC50)
[5] = AlphaLISA, in vitro, read-out: HDME Inhibition KDM4C
[6] = AlphaLISA assay, read-out: HDME Inhibition KDM6A (IC50)
[7] = AlphaLISA, in vitro, read-out: HDME Inhibition KDM6A
[8] = AlphaLISA assay, read-out: HDME Inhibition KDM5B (IC50)
[9] = AlphaLISA, in vitro, read-out: HDME Inhibition KDM5B

Row | IC50 (KDM2B (FBXL10); [1]) [µM] | IC50 (KDM5B (PLU-1)) [µM] | IC50 (PHF8 (KDM7); [2]) [µM] | IC50 (PHF8 (KDM7); [3]) [µM] | IC50 (KDM4C (JMJD2C); [4]) [µM] | IC50 (KDM4C (JMJD2C); [5]) [µM] | IC50 (KDM6A (UTX); [6]) [µM] | IC50 (KDM6A (UTX); [7]) [µM] | IC50 (KDM5B (PLU-1); [8]) [µM] | IC50 (KDM5B (PLU-1); [9]) [µM] | IC50 (KDM2B (FBXL10); AlphaLISA assay, read-out: HDME Inhibition KDM2B (IC50)) [µM] | SMILES
1 | 2.29 | 4.62 | > 10 | > 10 | > 10 | > 10 | > 10 | > 10 |  |  |  | Cc1cc(C(=O)O)cc(CNCc2nnc(C3CC3)n2Cc2ccc(F)cc2)n1 [Compound 38, 2-{[({5-cyclopropyl-4-[(4-fluorophenyl)methyl]-4H-1,2,4-triazol-3-yl}methyl)amino]methyl}-6-methylpyridine-4-carboxylic acid]
2 | 0.565 | 3.02 |  | 1.03 | > 10 | > 10 | > 10 | > 10 |  |  |  | Cc1cc(C(=O)O)cc(CNCc2nccn2CCc2cncnc2)n1 [Compound 26, 2-methyl-6-{[({1-[2-(pyrimidin-5-yl)ethyl]-1H-imidazol-2-yl}methyl)amino]methyl}pyridine-4-carboxylic acid]
3 | 0.248 |  |  | 0.908 | > 10 | > 10 | > 10 | > 10 | > 10 | > 10 |  | CSc1nnc(CNCc2cc(C(=O)O)cc(C)n2)n1Cc1ccc(F)cc1 [Compound 36, 2-{[({4-[(4-fluorophenyl)methyl]-5-(methylsulfanyl)-4H-1,2,4-triazol-3-yl}methyl)amino]methyl}-6-methylpyridine-4-carboxylic acid]
4 | > 10 |  | > 10 | > 10 | > 10 | > 10 | > 10 | > 10 | > 10 | > 10 | > 10 | COc1ccc(CCn2ccnc2CNCc2cc(C(=O)O)cc(C)n2)cc1OC [Compound 22, 2-{[({1-[2-(3,4-dimethoxyphenyl)ethyl]-1H-imidazol-2-yl}methyl)amino]methyl}-6-methylpyridine-4-carboxylic acid]
5 | 0.703 |  |  | 2.22 | > 10 | > 10 | > 10 | > 10 | > 10 | > 10 |  | CCC(C)Cc1cnc(CNCc2cc(C(=O)O)cc(C)n2)n1Cc1ccc(F)cc1 (stereo not shown) [Compound 30, 2-{[({1-[(4-fluorophenyl)methyl]-5-(2-methylbutyl)-1H-imidazol-2-yl}methyl)amino]methyl}-6-methylpyridine-4-carboxylic acid]

Continued, compound first:

Row | SMILES | IC50 (KDM2B (FBXL10); [1]) [µM] | IC50 (KDM5B (PLU-1)) [µM] | IC50 (PHF8 (KDM7); [2]) [µM] | IC50 (PHF8 (KDM7); [3]) [µM] | IC50 (KDM4C (JMJD2C); [4]) [µM] | IC50 (KDM4C (JMJD2C); [5]) [µM] | IC50 (KDM6A (UTX); [6]) [µM] | IC50 (KDM6A (UTX); [7]) [µM] | IC50 (KDM5B (PLU-1); [8]) [µM] | IC50 (KDM5B (PLU-1); [9]) [µM] | IC50 (KDM2B (FBXL10); AlphaLISA assay, read-out: HDME Inhibition KDM2B (IC50)) [µM]
6 | C=Cc1cc(C(=O)O)cc(CNCc2nccn2Cc2ccc(F)cc2)n1 [Compound 12, 2-ethenyl-6-{[({1-[(4-fluorophenyl)methyl]-1H-imidazol-2-yl}methyl)amino]methyl}pyridine-4-carboxylic acid] | 1.6 | 3.76 | > 10 | > 10 | > 10 | > 10 | > 10 | > 10 |  |  | 
7 | Cc1cc(C(=O)O)cc(CNCCc2ccccn2)n1 [Compound 3, 2-methyl-6-({[2-(pyridin-2-yl)ethyl]amino}methyl)pyridine-4-carboxylic acid] | 4.65 |  | > 10 | > 10 | > 10 | > 10 | > 10 | > 10 | > 10 | > 10 | 
8 | Cc1cc(C(=O)O)cc(CNCc2nccn2CCC(C)C)n1 [Compound 18, 2-methyl-6-[({[1-(3-methylbutyl)-1H-imidazol-2-yl]methyl}amino)methyl]pyridine-4-carboxylic acid] | 3.93 |  |  | 3.03 | > 10 | > 10 | > 10 | > 10 | > 10 | > 10 | 
9 | CC#Cc1cc(C(=O)O)cc(CNCc2nccn2Cc2ccc(F)cc2)n1 [Compound 6, 2-{[({1-[(4-fluorophenyl)methyl]-1H-imidazol-2-yl}methyl)amino]methyl}-6-(prop-1-yn-1-yl)pyridine-4-carboxylic acid] | 0.708 | 3.35 |  | 0.353 | > 10 | > 10 | > 10 | > 10 |  |  | 
10 | Cc1cc(C(=O)O)cc(CNC2CCCc3cccnc32)n1 (stereo not shown) [Compound 19, 2-methyl-6-{[(5,6,7,8-tetrahydroquinolin-8-yl)amino]methyl}pyridine-4-carboxylic acid] | 1.15 |  |  | 0.89 | > 10 | > 10 | > 10 | > 10 |  | 0.348 | 
11 | CCc1cc(C(=O)O)cc(CNCc2nccn2Cc2ccc(F)cc2)n1 [Compound 13, 2-ethyl-6-{[({1-[(4-fluorophenyl)methyl]-1H-imidazol-2-yl}methyl)amino]methyl}pyridine-4-carboxylic acid] | 2.27 |  |  | 5.78 | > 10 | > 10 | > 10 | > 10 | > 10 | > 10 | 
12 | COCc1cc(C(=O)O)cc(CNCc2nccn2Cc2ccc(F)cc2)n1 [Compound 2, 2-{[({1-[(4-fluorophenyl)methyl]-1H-imidazol-2-yl}methyl)amino]methyl}-6-(methoxymethyl)pyridine-4-carboxylic acid] | 2.94 |  | > 10 | > 10 | > 10 | > 10 | > 10 | > 10 | > 10 | > 10 | 
